Measurements published in PMC12802961 (Journal of Antimicrobial Chemotherapy, 2025).

Tests used:
[1] = tested on: E. coli 52; assay: Neutropenic murine thigh infection model; format: in vivo, Escherichia coli
Experimental: (§1) All dosing regimens were performed in at least two animals per dosing regimen.
(§2) At t = 0 h, 2 h after infection, two mice were humanely euthanized to determine the initial number of cfu/thigh just before treatment. […] Subsequently, thighs were homogenized using the Ultra-Turrax homogenizer (IKA Labortechnik, Germany). For each thigh 10-fold dilution series were prepared and 3 × 10 µL per dilution were plated (Chromagar, bioMérieux, NL). The following day, colonies were counted and the number of cfu/thigh was calculated.
(§3) Free drug concentrations were used in all calculations.

[2] = tested on: KPC K. pneumoniae; details: KPC K. pneumoniae strain of previous animal study, cited from earlier work
[3] = tested on: P. aeruginosa 132; assay: Checkerboard broth microdilution MIC of cefepime alone and with taniborbactam; format: cell-based, Pseudomonas aeruginosa
Excerpt: (§4) Four previously well-characterized cefepime-resistant isolates, namely one ESBL-producing E. coli, one ESBL-producing K. pneumoniae and two P. aeruginosa (one VIM- and one AmpC constitutively -producing), were used.

[4] = tested on: P. aeruginosa 106; assay: as above; format: cell-based, Pseudomonas aeruginosa
Excerpt: as §4

[5] = tested on: P. aeruginosa 132; assay: Neutropenic murine thigh infection model; format: in vivo, Pseudomonas aeruginosa
Experimental: as §1, §2, §3

[6] = tested on: P. aeruginosa 106; assay: Neutropenic murine thigh infection model; format: in vivo, Pseudomonas aeruginosa
Experimental: as §1, §2, §3

[7] = tested on: two ESBL-producing Enterobacterales and one AmpC- and one VIM-producing P. aeruginosa isolates; assay: Checkerboard broth microdilution MIC, all four strains together; format: cell-based
Excerpt: as §4

[8] = tested on: KPC P. aeruginosa; details: KPC P. aeruginosa strain of previous animal study, cited from earlier work
[9] = human simulated regimen of cefepime 2 g q8h as 2 h infusion; cited from earlier work
[10] = cefepime monotherapy q2h, extrapolated
[11] = cefepime monotherapy, extrapolated

## CO/N=C(\C(=O)N[C@@H]1C(=O)N2C(C(=O)[O-])=C(C[N+]3(C)CCCC3)CS[C@H]12)c1csc(N)n1 [cefepime, Cefepime]
[1]; [10]
  1 log10 kill: %ƒT > MIC: (53.9) %
  1 log10 kill: Total daily dose, mg/kg: (5237.2) mg/kg
  Stasis: %ƒT > MIC: (36.5) %
[1]; cefepime monotherapy q2h s.c. 24 h, extrapolated, Emax model
  Stasis: Total daily dose, mg/kg: (1857.2) mg/kg
[1]; [11]
  1 log10 kill: q2h dose, mg/kg: (436.4) mg/kg
  Stasis: q2h dose, mg/kg: (154.8) mg/kg
[1]; cefepime q2h 4 mg/kg, potMIC 0.06 mg/L (with 4 mg/L taniborbactam)
  Cefepime %fT > potMIC: 80.70%
[2]
  unpotentiated cefepime MIC: > 512 mg/L
[2]; with taniborbactam
  potentiated cefepime MIC: 2 mg/L
[3]; P. aeruginosa 132, +taniborbactam 0.03 mg/L
  Cefepime MIC at taniborbactam 0.03 mg/L: 16 mg/L
[3]; P. aeruginosa 132, +taniborbactam 0.06 mg/L
  Cefepime MIC at taniborbactam 0.06 mg/L: 16 mg/L
[3]; P. aeruginosa 132, +taniborbactam 0.125 mg/L
  Cefepime MIC at taniborbactam 0.125 mg/L: 8 mg/L
[3]; P. aeruginosa 132, +taniborbactam 0.25 mg/L
  Cefepime MIC at taniborbactam 0.25 mg/L: 4 mg/L
[3]; P. aeruginosa 132, +taniborbactam 0.5 mg/L
  Cefepime MIC at taniborbactam 0.5 mg/L: 2 mg/L
[3]; P. aeruginosa 132, +taniborbactam 1 mg/L
  Cefepime MIC at taniborbactam 1 mg/L: 1 mg/L
[3]; P. aeruginosa 132, +taniborbactam 2 mg/L
  Cefepime MIC at taniborbactam 2 mg/L: 1 mg/L
[3]; P. aeruginosa 132, +taniborbactam 4 mg/L
  Cefepime MIC at taniborbactam 4 mg/L (potMIC): 1 mg/L
[3]; Pseudomonas aeruginosa, 132, read-out: Cefepime MIC (mg/L) alone
  MIC: 16 mg/L
[4]; P. aeruginosa 106, +taniborbactam 0.03 mg/L
  Cefepime MIC at taniborbactam 0.03 mg/L: 32 mg/L
[4]; P. aeruginosa 106, +taniborbactam 0.06 mg/L
  Cefepime MIC at taniborbactam 0.06 mg/L: 32 mg/L
[4]; P. aeruginosa 106, +taniborbactam 0.125 mg/L
  Cefepime MIC at taniborbactam 0.125 mg/L: 32 mg/L
[4]; P. aeruginosa 106, +taniborbactam 0.25 mg/L
  Cefepime MIC at taniborbactam 0.25 mg/L: 16 mg/L
[4]; P. aeruginosa 106, +taniborbactam 0.5 mg/L
  Cefepime MIC at taniborbactam 0.5 mg/L: 16 mg/L
[4]; P. aeruginosa 106, +taniborbactam 1 mg/L
  Cefepime MIC at taniborbactam 1 mg/L: 16 mg/L
[4]; P. aeruginosa 106, +taniborbactam 2 mg/L
  Cefepime MIC at taniborbactam 2 mg/L: 8 mg/L
[4]; P. aeruginosa 106, +taniborbactam 4 mg/L
  Cefepime MIC at taniborbactam 4 mg/L (potMIC): 4 mg/L
[4]; Pseudomonas aeruginosa, 106, read-out: Cefepime MIC (mg/L) alone
  MIC: 32 mg/L
[5]; cefepime monotherapy
  1 log10 kill: q2h dose, mg/kg: 59.9 mg/kg
[5]; cefepime monotherapy q2h
  1 log10 kill: %ƒT > MIC: 32.4%
  1 log10 kill: Total daily dose, mg/kg: 718.3 mg/kg
  Stasis: %ƒT > MIC: 8.9%
[5]; cefepime monotherapy q2h s.c. 24 h
  Stasis: Total daily dose: 180.8 mg/kg
[5]; cefepime q2h 8 mg/kg, potMIC 1 mg/L (with 4 mg/L taniborbactam)
  Cefepime %fT > potMIC: 46.10%
[6]; [10]
  1 log10 kill: %ƒT > MIC: (47.4) %
  1 log10 kill: Total daily dose, mg/kg: (3484.4) mg/kg
  Stasis: %ƒT > MIC: (36.9) %
[6]; cefepime monotherapy q2h s.c. 24 h, extrapolated
  Stasis: Total daily dose, mg/kg: (1901.6) mg/kg
[6]; [11]
  1 log10 kill: q2h dose, mg/kg: (290.4) mg/kg
  Stasis: q2h dose, mg/kg: (158.5) mg/kg
[6]; cefepime q2h 64 mg/kg, MIC 32 mg/L
  Cefepime %fT > MIC: 22.10%
[7]; +taniborbactam 4 mg/L
  Cefepime MIC in the presence of 4 mg/L taniborbactam, all strains: 0.06 to 4 mg/L
[7]; Pseudomonas aeruginosa, read-out: Cefepime MIC, all strains, cefepime alone
  MIC: 16 to 256 µg/mL
[7]; cefepime alone
  Cefepime MIC, all strains: > 8 mg/L
[8]
  unpotentiated cefepime MIC: > 512 mg/L
[8]; with taniborbactam
  potentiated cefepime MIC: 4 mg/L
[9]
  fAUC0-24: ~787.8 mg·h/L
